Experimental data as given in patent publication US4017487A, “7β-(D-5-amino-5-carboxyvaleramido )-7-methoxy-3-substituted-3-cephem-4-carboxylic acid antibiotics” (priority 1974, dated 1977).
Where a name gives a salt, the structure may show the parent alone. Read-outs that look alike come from different tables or passages of the source.

Experiments:
[1] = system: gram-negative and gram-positive bacteria; assay: Antibacterial activity (general statements); format: cell-based
[2] = system: Proteus vulgaris MB-838; assay: Disc-plate assay using Proteus vulgaris
[3] = system: Vibrio percolans MB-1272; assay: Disc-plate assay using Vibrio percolans
[4] = system: Proteus morganii 3202; assay: In vivo mouse protection test; set-up: species or system white Swiss mice; details: 4000 mg. × 2 doses
Text: (§1) Methods: The method employed in this characterization is as follows: Female white Swiss mice, average weight 20-23 grams, were infected intraperitoneally with 3-20 times the number of organisms calculated to be lethal for 50% of the infected control animals (3-20 LD50 doses). At the time of infection and again six hours later, therapy was given by the designated route. Controls of the virulence of the culture and the toxicity of the antibiotic for uninfected mice were included in the tests. Seven days after infection the test was considered complete and the amount of the antibiotic (I) that would be required to protect 50% of the infected and treated animals was calculated by the method of Knudsen and Curtis; J. Amer. Stat. Assoc. Vol. 42: page 282 (1947).
The method employed in these studies is the same as described above with regard to the in vivo characterization of 810A. The results of these tests are described below in Table XIb:
Administration was by subcutaneous injection. At the completion of the test period, usually seven days after administration, the amount of product required to protect 50% of the mice (ED50) from this otherwise fatal injection was calculated: […]

[5] = system: Proteus morganii 356; assay: In vivo mouse protection test, cephalosporin-resistant clinical isolate; set-up: species or system white Swiss mice; details: s.c. × 2 doses
Text: as §1
In addition to the aforementioned in vivo trials of the product, a clinical isolate of Proteus morganii 356 which is resistant to cephalosporins and capable of degrading cephalosporin C, was employed in a mouse protection test performed in the same manner as reported above.

[6] = system: Aerobacter cloacae (MB-2646); assay: Bacterial inactivation, cell-free extract; format: biochemical; details: for Antibiotic Activity Remaining: starting 250 μg./ml.
Procedure: The ability of Antibiotic 810A and cephalosporin C to withstand the degradative effect of the culture Aerobacter cloacae (MB-2646) was also determined. This culture is gram-negative and resistant to cephalosporin C. […] The source of the inactivating substance is a 1:160 dilution of the filtrate of an 18 hour 37° C. shake culture of Aerobacter cloacae MB-2646 in nutrient broth containing 0.2% yeast extract. Table XIV, infra, indicates the percent inactivation of Antibotic 810A, cephalothin, cephaloridine and cephalosporin C on Vibrio percolans (MB-1272) via this method:
Using the same assay procedure as described above, Table XV, infra, indicates the relative resistance of Antibiotic 810A to enzymatic inactivation by Aerobacter cloacae. The starting concentration is 250 μg./ml. Results are expressed in μg./ml.

[7] = system: Alcaligenes faecalis (MB-9); details: known property of the organism; cited from earlier work
[8] = system: penicillinase; details: cited from earlier work
[9] = system: gram-negative and gram-positive bacteria; details: cited from earlier work
[10] = system: Escherichia coli 236; assay: Bacterial inactivation; details: four hours; B. subtilis (MB-964); 240 min
[11] = system: Proteus morganii 251; assay: Bacterial inactivation; details: four hours; B. subtilis (MB-964); 240 min
[12] = system: Proteus morganii 356; assay: Bacterial inactivation; details: four hours; B. subtilis (MB-964); 240 min
[13] = system: Proteus mirabilis 241; assay: Bacterial inactivation; details: four hours; B. subtilis (MB-964); 240 min
[14] = system: Alcaligenes viscosus (MB-12); assay: Bacterial inactivation, washed bacterial cells; details: 4 hour incubation; assayed on B. subtilis (MB-964) plates
[15] = system: Alcaligenes faecalis (MB-9); details: alcaligenes faecalis cells, 3 h
[16] = system: gram-negative and gram-positive infections; assay: In vivo protection against infection (general statements); set-up: species or system mice
Text: as §1
The method employed in these studies is the same as described above with regard to the in vivo characterization of 810A.

[17] = system: degradative bacteria / enzymatic degradation; assay: Resistance to enzymatic degradation / bacterial inactivation (general statements); format: biochemical; details: compared with cephalosporin C
Text: Bacterial Inactivation with 810A: An in vitro study was designed to determine the resistance of Antibiotic 810A, to bacterial inactivation as compared with cephalosporin C, cephaloridine and cephalothin.

[18] = system: Escherichia coli; assay: In vitro disc-plate agar diffusion, antibacterial spectrum (7 mm disc; 7 mm = no inhibition zone); format: cell-based; details: 16 h, 192 μg/ml, inoculum 5 ml/150 ml, 25° C., read-out: Inhibition Zone Diameter
[19] = system: Bacillus sp.; assay: In vitro disc-plate agar diffusion, antibacterial spectrum (7 mm = no zone); format: cell-based; details: 16 h, 192 μg/ml, inoculum 5 ml/150 ml, 25° C., read-out: Inhibition Zone Diameter
[20] = system: Proteus vulgaris; assay: as above; format: cell-based; details: 16 h, read-out: Inhibition Zone Diameter
[21] = system: Bacillus subtilis; assay: as above; format: cell-based; details: 16 h, read-out: Inhibition Zone Diameter
[22] = system: Salmonella gallinarum; assay: as above; format: cell-based; details: Salmonella enterica, 16 h, 192 μg/ml, inoculum 10 ml/150 ml, 25° C., read-out: Inhibition Zone Diameter
[23] = system: Xanthomonas vesicatoria; assay: as above; format: cell-based; details: 16 h, read-out: Inhibition Zone Diameter
[24] = system: Escherichia coli strains; assay: microbe, parasite or virus in culture; format: cell-based; details: 16 h, 192 μg/ml, Sensitive parent, 25° C., read-out: Inhibition Zone Diameter
[25] = system: Escherichia coli W-MB-60; assay: Special effects spectrum in vitro study, disc-plate (7 mm = no zone); format: cell-based; details: WMB60, 16 h
[26] = 2 hour incubation, assay organism B. subtilis 964
[27] = 2 hour incubation, assay organism V. percolans 1272
[28] = 2 hour incubation, cell-free extract, assayed on V. percolans (MB-1272) plates

CO[C@@]1(NC(=O)CCC[C@@H](N)C(=O)O)C(=O)N2C(C(=O)O)=C(CN=[N+]=[N-])CS[C@@H]21 [7β-(D-5-amino-5-carboxyvaleramido)-3-(azidomethyl)-7-methoxy-3-cephem-4-carboxylic acid]
bioactivity ([1]; several strains of bacteria): possessed bioactivity against several strains of bacteria

COC(=Cc1ccc(O)cc1)C(=O)OCC1=C(C(=O)O)N2C(=O)[C@](NC(=O)CCC[C@@H](N)C(=O)O)(OC)[C@H]2SC1 [7β-(D-5-amino-5-carboxyvaleramido)-3-(α-methoxy-p-hydroxycinnamoyloxymethyl)-7-methoxy-3-cephem-4-carboxylic acid]
IC (25 mm zone) ([2]; Proteus vulgaris, MB838, read-out: bio-potency (concentration for a 25 mm. zone)): 18 µg/mL

CO[C@@]1(NC(=O)CCC[C@@H](N)C(=O)O)C(=O)N2C(C(=O)O)=C(C)CS[C@@H]21 [7β-(D-5-amino-5-carboxyvaleramido)-3-methyl-7-methoxy-3-cephem-4-carboxylic acid]
bioactivity ([3]; 50 μg/ml): Inactive

CO[C@@]1(NC(=O)CCC[C@@H](NC(=O)OC(C)(C)C)C(=O)O)C(=O)N2C(C(=O)O)=C(COC(N)=O)CS[C@@H]21 [7β-(D-5N-tert-tertiary-butoxycarbonylamino-5-carboxyvaleramido)-3-(carbamoyloxymethyl)-7-methoxy-3-cephem-4-carboxylic acid]
biopotency relative to starting material ([1]; relative to disodium salt of 842A): one-tenth

O=C(Cc1cccs1)N[C@@H]1C(=O)N2C(C(=O)[O-])=C(C[n+]3ccccc3)CS[C@H]12 [Cephaloridine]
protection against Proteus morganii 3202 [4]: failed to protect | ED50 by Subcutaneous Route × 2 Doses (average of Two Trials) [5]: 9,270 μg. | Antibiotic Activity Remaining [6, 26]: < 10 µg/mL | Antibiotic Activity Remaining [6, 27]: < 10 µg/mL | percent inactivation ([6]; aerobacter cloacae culture filtrate, 2 h): 96%

CC(=O)OCC1=C(C(=O)O)N2C(=O)[C@@H](NC(=O)CCC[C@@H](N)C(=O)O)[C@H]2SC1 [Cephalosporin C]
percent inactivation [6, 28]: 96% | inactivation of cephalosporin C [7]: completely inactivate | resistance to penicillinase [8]: inherent resistance to penicillinase | antibacterial activity [9]: only moderately active | antibacterial activity ([9]; listed as cepahlosporin C): relatively low antibacterial activity | percent inactivation [10]: > 99% | percent inactivation [11]: > 99% | percent inactivation [12]: > 99% | percent inactivation [13]: 72% | percent inactivation [14]: > 99%

CC(=O)OCC1=C(C(=O)O)N2C(=O)[C@@H](NC(=O)Cc3cccs3)[C@H]2SC1 [Cephalothin]
protection against Proteus morganii 3202 [4]: failed to protect | ED50 by Subcutaneous Route × 2 Doses (average of Two Trials) [5]: > 20,000 μg. | percent inactivation [6, 28]: 66% | Antibiotic Activity Remaining [6, 26]: 140 µg/mL | Antibiotic Activity Remaining [6, 27]: 85 µg/mL | percent inactivation [15]: 50%

COC(=Cc1ccc(OS(=O)(=O)O)cc1)C(=O)OCC1=C(C(=O)O)N2C(=O)[C@](NC(=O)CCC[C@@H](N)C(=O)O)(OC)[C@H]2SC1 [Ic, 7β-(D-5-amino-5-carboxyvaleramido)-3-(α-methoxy-p-sulfooxycinnamoyloxymethyl)-7-methoxy-3-cephem-4-carboxylic acid]
in vivo protection / activity ([16]; mouse, in vivo): when administered intraperitoneally, it is effective against a variety of gram-negative and gram-positive infections | oral protection against infections ([16]; oral): protects against infections due to Proteus vulgaris | resistance to enzymatic degradation [17]: more resistant to enzymatic degradation than cephalosporin C | Total Biological Units ([2]; Example 6 separation): 10,000 units

CC1(C)S[C@@H]2[C@H](NC(=O)Cc3ccccc3)C(=O)N2[C@H]1C(=O)O [Penicillin G]
resistance to penicillinase [8]: in the presence of penicillinase it is degraded to a form which is ineffective against most pathogens

CO[C@@]1(NC(=O)CCC[C@@H](N)C(=O)O)C(=O)N2C(C(=O)O)=C(COC(N)=O)CS[C@@H]21 [Sodium Salt]
zone of inhibition at 192 µg/mL [18]: 18 mm | zone of inhibition at 192 µg/mL [19]: 7 mm | zone of inhibition at 192 µg/mL [20]: 24 mm | zone of inhibition at 192 µg/mL [21]: 18 mm | zone of inhibition at 192 µg/mL [22]: 25 mm | zone of inhibition at 192 µg/mL [23]: 17 mm | zone of inhibition at 192 µg/mL [24]: 18 mm | zone of inhibition at 192 µg/mL ([25]; pH 9, read-out: Inhibition Zone Diameter, 192 μg/ml, 0.1 M Phosphate Buffer pH 9): 24 mm | zone of inhibition at 192 µg/mL ([25]; read-out: Inhibition Zone Diameter, 192 μg/ml, Cation Exchange Resin (Dow ET 91) 1%): 18 mm | zone of inhibition at 192 µg/mL ([25]; read-out: Inhibition Zone Diameter, 192 μg/ml, Control (no additions)): 18 mm | concentration giving a 25 mm. zone ([3]; 25 mm. zone, listed as Sodium Salt of 842A): 5 µg/mL
